Data from PMC7531004, “Discovery of gramicidin A analogues with altered activities by multidimensional screening of a one-bead-one-compound library” (Nature Communications, 2020).
Where a SMILES comes first, the peptide text is derived from it. [ ]: non-standard residue; d: D form. The star is where a group is joined. NHCH2CH2OH = OCCN*; For = O=C*

Assays:
[1] = test system: P388 mouse leukemia cells; settings: 92 h
How it was run: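 First, library peptide stocks are diluted 250-fold in RPMI1640 with 10% heat-inactivated FBS. Next, they are mixed with P388 cells to give 1 × 10^4 cells/mL and incubated 92 h at 37 °C, 5% CO2. Finally, viability (%) is scored by WST-1 absorbance at 415 nm.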

[2] = H+/Na+ transport assay of bead-derived peptides (one-point); assay type: biochemical; set-up: key: relative activity; mean of two control wells = 1.00; settings: bead-derived peptide solution, EYPC/EYPG LUVs;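 also: relative to parent gramicidin A activity set to 1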
How it was run: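 H+/Na+ transport is monitored through pyranine fluorescence in freshly extruded LUVs after a 30-min room-temperature vortex with each library peptide at a single concentration. Signals are normalized to detergent (Triton X-100) and untreated controls.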

[3] = test system: Streptococcus pyogenes SSI-9; experiment: Antibacterial activity assay of bead-derived peptides (three concentrations); assay type: cell-based; set-up: key: +++: inhibition by the 640-fold diluted peptide solution; ++: inhibition by the 160-fold diluted solution; +: inhibition by the 40-fold diluted solution; -: no inhibition; settings: S. pyogenes, bead-derived peptide solution, three concentrations
How it was run: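 Three stock dilutions per peptide (none, 4-fold, 16-fold in DMSO) are screened in 96-well format. The medium is blood-supplemented cation-adjusted MHB, inoculated with 2 × 10^5 CFU S. pyogenes SSI-9. Growth is read as cell precipitation at 18 h, 37 °C.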

In the case of `CC(C)C[C@@H](NC(=O)[C@H](C)NC(=O)[C@H](NC(=O)[C@H](C)NC(=O)CNC(=O)[C@@H](NC=O)C(C)C)C(C)C)C(=O)N[C@H](C(=O)N[C@H](CC(C)C)C(=O)N[C@@H](Cc1c[nH]c2ccccc12)C(=O)N[C@H](CC(C)C)C(=O)N[C@@H](Cc1c[nH]c2ccccc12)C(=O)N[C@H](CC(C)C)C(=O)N[C@@H](Cc1c[nH]c2ccccc12)C(=O)N[C@H](CC(C)C)C(=O)N[C@@H](Cc1c[nH]c2ccccc12)C(=O)NCCO)C(C)C` [compound 12877] (For-VGA[dV]A[dL]V[dL]W[dL]W[dL]W[dL]W-NHCH2CH2OH), the cell viability/% [1] is reported as 4.7%, the “H+/Na+ transport activity normalized against the value of 1 (1.00)” value (“H+/Na+ transport activity normalized” below) [2] is reported as 1.04 and the antibacterial activity [3] is reported as “-”.

With `CC(C)C[C@@H](NC(=O)[C@H](Cc1c[nH]c2ccccc12)NC(=O)[C@H](NC(=O)[C@H](Cc1c[nH]c2ccccc12)NC(=O)[C@@H](CC(C)C)NC(=O)[C@@H](NC(=O)[C@H](NC(=O)[C@H](C)NC(=O)[C@H](NC(=O)[C@H](C)NC(=O)CNC(=O)[C@@H](NC=O)C(C)C)C(C)C)C(C)C)C(C)C)C(C)C)C(=O)N[C@@H](Cc1c[nH]c2ccccc12)C(=O)N[C@@H](C(=O)N[C@@H](Cc1c[nH]c2ccccc12)C(=O)NCCO)C(C)C` [compound 12947] (For-VGA[dV]A[dV]V[dL]W[dV]W[dL]W[dV]W-NHCH2CH2OH) the cell viability/% [1] was 10.2%, the “H+/Na+ transport activity normalized” value [2] was 1.02 and the antibacterial activity [3] was “+”.

For `CC(C)C[C@@H](NC(=O)[C@H](C)NC(=O)[C@H](NC(=O)[C@H](C)NC(=O)CNC(=O)[C@@H](NC=O)C(C)C)C(C)C)C(=O)N[C@H](C(=O)N[C@@H](C(=O)N[C@@H](Cc1c[nH]c2ccccc12)C(=O)N[C@@H](C(=O)N[C@@H](Cc1c[nH]c2ccccc12)C(=O)N[C@H](CC(C)C)C(=O)N[C@@H](Cc1c[nH]c2ccccc12)C(=O)N[C@@H](C(=O)N[C@@H](Cc1c[nH]c2ccccc12)C(=O)NCCO)C(C)C)C(C)C)C(C)C)C(C)C` [compound 12950] (For-VGA[dV]A[dL]V[dV]W[dV]W[dL]W[dV]W-NHCH2CH2OH), the cell viability/% [1] was 97.0%, the “H+/Na+ transport activity normalized” value [2] was 1.08 and the antibacterial activity [3] was “+”.

With `CC(C)C[C@@H](NC(=O)[C@H](C)NC(=O)CNC(=O)[C@@H](NC=O)C(C)C)C(=O)N[C@@H](C)C(=O)N[C@@H](C(=O)N[C@H](C(=O)N[C@@H](C(=O)N[C@@H](Cc1c[nH]c2ccccc12)C(=O)N[C@H](CC(C)C)C(=O)N[C@@H](Cc1c[nH]c2ccccc12)C(=O)N[C@H](CC(C)C)C(=O)N[C@@H](Cc1c[nH]c2ccccc12)C(=O)N[C@H](CC(C)C)C(=O)N[C@@H](Cc1c[nH]c2ccccc12)C(=O)NCCO)C(C)C)C(C)C)C(C)C` [compound 12972] (For-VGA[dL]A[dV]V[dV]W[dL]W[dL]W[dL]W-NHCH2CH2OH) the cell viability/% [1] was 0.0%, the “H+/Na+ transport activity normalized” value [2] was 1.33 and the antibacterial activity [3] was “++”.

With `CNC(=O)C[C@@H](NC(=O)[C@@H](NC(=O)[C@@H](CC(C)C)NC(=O)[C@H](C)NC(=O)[C@H](NC(=O)[C@H](C)NC(=O)CNC(=O)[C@@H](NC=O)C(C)C)C(C)C)C(C)C)C(=O)N[C@@H](Cc1c[nH]c2ccccc12)C(=O)N[C@@H](C(=O)N[C@@H](Cc1c[nH]c2ccccc12)C(=O)N[C@H](CC(C)C)C(=O)N[C@@H](Cc1c[nH]c2ccccc12)C(=O)N[C@H](CC(C)C)C(=O)N[C@@H](Cc1c[nH]c2ccccc12)C(=O)NCCO)C(C)C` [compound 12975] (For-VGA[dV]A[dL]V[dD](NHMe)W[dV]W[dL]W[dL]W-NHCH2CH2OH) the cell viability/% [1] was 86.0%, the “H+/Na+ transport activity normalized” value [2] was 1.43 and the antibacterial activity [3] was “-”.

For `CC(C)C[C@@H](NC(=O)[C@H](C)NC(=O)CNC(=O)[C@@H](NC=O)C(C)C)C(=O)N[C@@H](C)C(=O)N[C@@H](C(=O)N[C@H](C(=O)N[C@H](CC(C)C)C(=O)N[C@@H](Cc1c[nH]c2ccccc12)C(=O)N[C@@H](C(=O)N[C@@H](Cc1c[nH]c2ccccc12)C(=O)N[C@@H](C(=O)N[C@@H](Cc1c[nH]c2ccccc12)C(=O)N[C@@H](C(=O)N[C@@H](Cc1c[nH]c2ccccc12)C(=O)NCCO)[C@H](C)O)C(C)C)C(C)C)C(C)C)C(C)C` [compound 12984] (For-VGA[dL]A[dV]V[dL]W[dV]W[dV]W[dT]W-NHCH2CH2OH), the cell viability/% [1] was 81.1%, the “H+/Na+ transport activity normalized” value [2] was 1.08 and the antibacterial activity [3] was “-”.

For `CC(C)C[C@@H](NC(=O)[C@H](C)NC(=O)CNC(=O)[C@@H](NC=O)C(C)C)C(=O)N[C@@H](C)C(=O)N[C@H](CC(C)C)C(=O)N[C@H](C(=O)N[C@H](CC(C)C)C(=O)N[C@@H](Cc1c[nH]c2ccccc12)C(=O)N[C@H](CC(C)C)C(=O)N[C@@H](Cc1c[nH]c2ccccc12)C(=O)N[C@@H](C(=O)N[C@@H](Cc1c[nH]c2ccccc12)C(=O)N[C@@H](C(=O)N[C@@H](Cc1c[nH]c2ccccc12)C(=O)NCCO)C(C)C)[C@H](C)O)C(C)C` [compound 12989] (For-VGA[dL]A[dL]V[dL]W[dL]W[dT]W[dV]W-NHCH2CH2OH), the cell viability/% [1] was 100.0%, the “H+/Na+ transport activity normalized” value [2] was 1.16 and the antibacterial activity [3] was “+”.

For `CC(C)C[C@@H](NC(=O)[C@H](C)NC(=O)[C@H](NC(=O)[C@H](C)NC(=O)CNC(=O)[C@@H](NC=O)C(C)C)C(C)C)C(=O)N[C@H](C(=O)N[C@@H](C(=O)N[C@@H](Cc1c[nH]c2ccccc12)C(=O)N[C@@H](C(=O)N[C@@H](Cc1c[nH]c2ccccc12)C(=O)N[C@@H](C(=O)N[C@@H](Cc1c[nH]c2ccccc12)C(=O)N[C@@H](C(=O)N[C@@H](Cc1c[nH]c2ccccc12)C(=O)NCCO)C(C)C)C(C)C)C(C)C)C(C)C)C(C)C` [compound 13030] (For-VGA[dV]A[dL]V[dV]W[dV]W[dV]W[dV]W-NHCH2CH2OH), the cell viability/% [1] was 99.9%, the “H+/Na+ transport activity normalized” value [2] was 1.42 and the antibacterial activity [3] was “+”.

In the case of `CC(C)C[C@@H](NC(=O)[C@H](Cc1c[nH]c2ccccc12)NC(=O)[C@H](NC(=O)[C@H](Cc1c[nH]c2ccccc12)NC(=O)[C@H](NC(=O)[C@H](Cc1c[nH]c2ccccc12)NC(=O)[C@H](NC(=O)[C@@H](NC(=O)[C@H](NC(=O)[C@H](C)NC(=O)[C@H](NC(=O)[C@H](C)NC(=O)CNC(=O)[C@@H](NC=O)C(C)C)C(C)C)[C@H](C)O)C(C)C)C(C)C)C(C)C)C(C)C)C(=O)N[C@@H](Cc1c[nH]c2ccccc12)C(=O)NCCO` [compound 13062] (For-VGA[dV]A[dT]V[dV]W[dV]W[dV]W[dL]W-NHCH2CH2OH), the cell viability/% [1] is reported as 92.8%, the “H+/Na+ transport activity normalized” value [2] is reported as 1.06 and the antibacterial activity [3] is reported as “-”.

With `CNC(=O)C[C@@H](NC(=O)[C@H](C)NC(=O)[C@@H](CC(C)C)NC(=O)[C@H](C)NC(=O)CNC(=O)[C@@H](NC=O)C(C)C)C(=O)N[C@H](C(=O)N[C@@H](C(=O)N[C@@H](Cc1c[nH]c2ccccc12)C(=O)N[C@H](CC(C)C)C(=O)N[C@@H](Cc1c[nH]c2ccccc12)C(=O)N[C@@H](C(=O)N[C@@H](Cc1c[nH]c2ccccc12)C(=O)N[C@H](CC(C)C)C(=O)N[C@@H](Cc1c[nH]c2ccccc12)C(=O)NCCO)C(C)C)C(C)C)C(C)C` [compound 13123] (For-VGA[dL]A[dD](NHMe)V[dV]W[dL]W[dV]W[dL]W-NHCH2CH2OH) the cell viability/% [1] was 100.0%, the “H+/Na+ transport activity normalized” value [2] was 1.24 and the antibacterial activity [3] was “-”.

In the case of `CC(C)C[C@@H](NC(=O)[C@H](C)NC(=O)CNC(=O)[C@@H](NC=O)C(C)C)C(=O)N[C@@H](C)C(=O)N[C@H](CC(C)C)C(=O)N[C@H](C(=O)N[C@@H](C(=O)N[C@@H](Cc1c[nH]c2ccccc12)C(=O)N[C@@H](C(=O)N[C@@H](Cc1c[nH]c2ccccc12)C(=O)N[C@@H](C(=O)N[C@@H](Cc1c[nH]c2ccccc12)C(=O)N[C@@H](C(=O)N[C@@H](Cc1c[nH]c2ccccc12)C(=O)NCCO)C(C)C)C(C)C)C(C)C)C(C)C)C(C)C` [compound 13128] (For-VGA[dL]A[dL]V[dV]W[dV]W[dV]W[dV]W-NHCH2CH2OH), the cell viability/% [1] is reported as 100.0%, the “H+/Na+ transport activity normalized” value [2] is reported as 1.24 and the antibacterial activity [3] is reported as “+”.

For `CC(C)C[C@@H](NC(=O)[C@H](C)NC(=O)[C@H](NC(=O)[C@H](C)NC(=O)CNC(=O)[C@@H](NC=O)C(C)C)C(C)C)C(=O)N[C@H](C(=O)N[C@H](CC(C)C)C(=O)N[C@@H](Cc1c[nH]c2ccccc12)C(=O)N[C@@H](C(=O)N[C@@H](Cc1c[nH]c2ccccc12)C(=O)N[C@@H](C(=O)N[C@@H](Cc1c[nH]c2ccccc12)C(=O)N[C@@H](C(=O)N[C@@H](Cc1c[nH]c2ccccc12)C(=O)NCCO)[C@H](C)O)C(C)C)C(C)C)C(C)C` [compound 13147] (For-VGA[dV]A[dL]V[dL]W[dV]W[dV]W[dT]W-NHCH2CH2OH), the cell viability/% [1] was 94.4%, the “H+/Na+ transport activity normalized” value [2] was 1.09 and the antibacterial activity [3] was “-”.

For `CC(C)C[C@@H](NC(=O)[C@H](C)NC(=O)[C@H](NC(=O)[C@H](C)NC(=O)CNC(=O)[C@@H](NC=O)C(C)C)C(C)C)C(=O)N[C@H](C(=O)N[C@@H](C(=O)N[C@@H](Cc1c[nH]c2ccccc12)C(=O)N[C@@H](C(=O)N[C@@H](Cc1c[nH]c2ccccc12)C(=O)N[C@H](CC(C)C)C(=O)N[C@@H](Cc1c[nH]c2ccccc12)C(=O)N[C@@H](C(=O)N[C@@H](Cc1c[nH]c2ccccc12)C(=O)NCCO)C(C)C)C(C)C)[C@H](C)O)C(C)C` [compound 13174] (For-VGA[dV]A[dL]V[dT]W[dV]W[dL]W[dV]W-NHCH2CH2OH), the cell viability/% [1] was 100.0%, the “H+/Na+ transport activity normalized” value [2] was 1.18 and the antibacterial activity [3] was “-”.
